Experimental data reported in the supplement of paper PMC10733146.

Tests used:
Experiment in all cases: viability relative to DMSO control (fraction); higher = less drug effect (more viable cells)
Settings in all cases: 48 h
Palbociclib = compound: CC(=O)c1c(C)c2cnc(Nc3ccc(N4CCNCC4)cn3)nc2n(C2CCCC2)c1=O [Palbociclib]
Summary of the method: (§1)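 Compounds were pre-plated at five concentrations, one well each, in 384-well plates, and primary mononuclear tumour cells were plated on them at 4 × 10^4 cells per well. The cells, fresh or cryopreserved, had been Ficoll-isolated from blood or bone marrow or taken from processed lymph node. After 48 h at 37 °C and 5% CO2 in RPMI-1640 with penicillin/streptomycin, L-glutamine and human serum, viability was read as CellTiter-Glo luminescence relative to the median of 16 inner DMSO wells.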

CPI-169 = compound: CCS(=O)(=O)N1CCC([C@@H](C)n2c(C)c(C(=O)NCc3c(OC)cc(C)[nH]c3=O)c3ccccc32)CC1 [CPI-169]
Summary of the method: as §1

EPZ-6438 = compound: CCN(c1cc(-c2ccc(CN3CCOCC3)cc2)cc(C(=O)NCc2c(C)cc(C)[nH]c2=O)c1C)C1CCOCC1 [EPZ-6438]
Summary of the method: as §1

I-BET-762 = compound: CCNC(=O)C[C@@H]1N=C(c2ccc(Cl)cc2)c2cc(OC)ccc2-n2c(C)nnc21 [I-BET-762]
Summary of the method: as §1

Etoposide = compound: COc1cc([C@@H]2c3cc4c(cc3[C@@H](O[C@@H]3O[C@@H]5CO[C@@H](C)O[C@H]5[C@H](O)[C@H]3O)[C@H]3COC(=O)[C@H]23)OCO4)cc(OC)c1O [Etoposide]
Summary of the method: as §1

Thalidomide = compound: O=C1CCC(N2C(=O)c3ccccc3C2=O)C(=O)N1 [Thalidomide]
Summary of the method: as §1

Pomalidomide = compound: Nc1cccc2c1C(=O)N(C1CCC(=O)NC1=O)C2=O [Pomalidomide]
Summary of the method: as §1

SGC 0946 = compound: CC(C)N(CCCNC(=O)Nc1ccc(C(C)(C)C)cc1)C[C@H]1O[C@@H](n2cc(Br)c3c(N)ncnc32)[C@H](O)[C@@H]1O [SGC 0946]
Summary of the method: as §1

[1] = compound: O=C(Nc1ccc2[nH]nc(-c3ccncc3)c2c1)[C@@H]1CCN(CC(=O)N2CCN(c3ccc(-c4ncccn4)cc3)CC2)C1
Summary of the method: as §1

Tofacitinib = compound: C[C@@H]1CCN(C(=O)CC#N)C[C@@H]1N(C)c1ncnc2[nH]ccc12 [Tofacitinib]
Summary of the method: as §1

Chlorambucil = compound: O=C(O)CCCc1ccc(N(CCCl)CCCl)cc1 [Chlorambucil]
Summary of the method: as §1

Entospletinib = compound: c1cn2cc(-c3ccc4cn[nH]c4c3)nc(Nc3ccc(N4CCOCC4)cc3)c2n1 [Entospletinib]
Summary of the method: as §1

primary DLBCL patient cells (S076)
viability (Palbociclib; 0.024 µM): 1.14 | viability (Palbociclib; 0.12 µM): 1.14 | viability (Palbociclib; 0.6 µM): 0.991 | viability (Palbociclib; 3 µM): 0.647 | viability (Palbociclib; 15 µM): 0.221 | viability (CPI-169; 0.024 µM): 1.04 | viability (CPI-169; 0.12 µM): 1.04 | viability (CPI-169; 0.6 µM): 1.07 | viability (CPI-169; 3 µM): 0.993 | viability (CPI-169; 15 µM): 1.05 | viability (EPZ-6438; 0.024 µM): 1.13 | viability (EPZ-6438; 0.12 µM): 1.09 | viability (EPZ-6438; 0.6 µM): 1.18 | viability (EPZ-6438; 3 µM): 1.17 | viability (EPZ-6438; 15 µM): 1.03 | viability (I-BET-762; 0.008 µM): 1.08 | viability (I-BET-762; 0.04 µM): 1.04 | viability (I-BET-762; 0.2 µM): 0.94 | viability (I-BET-762; 1 µM): 0.82 | viability (I-BET-762; 5 µM): 0.738 | viability (Etoposide; 0.032 µM): 0.882 | viability (Etoposide; 0.16 µM): 1.05 | viability (Etoposide; 0.8 µM): 0.81 | viability (Etoposide; 4 µM): 0.901 | viability (Etoposide; 20 µM): 0.551 | viability (Thalidomide; 0.032 µM): 1.06 | viability (Thalidomide; 0.16 µM): 0.993 | viability (Thalidomide; 0.8 µM): 1.09 | viability (Thalidomide; 4 µM): 1.11 | viability (Thalidomide; 20 µM): 1.06 | viability (Pomalidomide; 0.0032 µM): 0.926 | viability (Pomalidomide; 0.016 µM): 1.07 | viability (Pomalidomide; 0.08 µM): 1.08 | viability (Pomalidomide; 0.4 µM): 0.84 | viability (Pomalidomide; 2 µM): 1.05 | viability (SGC 0946; 0.024 µM): 1.15 | viability (SGC 0946; 0.12 µM): 1.16 | viability (SGC 0946; 0.6 µM): 0.962 | viability (SGC 0946; 3 µM): 1.06 | viability (SGC 0946; 15 µM): 0.534 | viability ([1]; 0.008 µM): 0.991 | viability ([1]; 0.04 µM): 0.912 | viability ([1]; 0.2 µM): 0.796 | viability ([1]; 1 µM): 0.694 | viability ([1]; 5 µM): 0.622 | viability (Tofacitinib; 0.024 µM): 0.916 | viability (Tofacitinib; 0.12 µM): 0.864 | viability (Tofacitinib; 0.6 µM): 0.818 | viability (Tofacitinib; 3 µM): 0.823 | viability (Tofacitinib; 15 µM): 0.824 | viability (Chlorambucil; 0.032 µM): 1.02 | viability (Chlorambucil; 0.16 µM): 0.886 | viability (Chlorambucil; 0.8 µM): 1.03 | viability (Chlorambucil; 4 µM): 0.858 | viability (Chlorambucil; 20 µM): 0.431 | viability (Entospletinib; 0.024 µM): 1.05 | viability (Entospletinib; 0.12 µM): 0.954 | viability (Entospletinib; 0.6 µM): 0.927 | viability (Entospletinib; 3 µM): 0.979 | viability (Entospletinib; 15 µM): 1.05

primary T-NHL patient cells (S058)
viability (Palbociclib; 0.024 µM): 1.15 | viability (Palbociclib; 0.12 µM): 1.32 | viability (Palbociclib; 0.6 µM): 1.08 | viability (Palbociclib; 3 µM): 0.899 | viability (Palbociclib; 15 µM): 0.538 | viability (CPI-169; 0.024 µM): 1.03 | viability (CPI-169; 0.12 µM): 1.06 | viability (CPI-169; 0.6 µM): 0.995 | viability (CPI-169; 3 µM): 1.05 | viability (CPI-169; 15 µM): 0.961 | viability (EPZ-6438; 0.024 µM): 1.21 | viability (EPZ-6438; 0.12 µM): 1.24 | viability (EPZ-6438; 0.6 µM): 1.03 | viability (EPZ-6438; 3 µM): 1.16 | viability (EPZ-6438; 15 µM): 0.95 | viability (I-BET-762; 0.008 µM): 1.17 | viability (I-BET-762; 0.04 µM): 1.03 | viability (I-BET-762; 0.2 µM): 0.904 | viability (I-BET-762; 1 µM): 0.816 | viability (I-BET-762; 5 µM): 0.61 | viability (Etoposide; 0.032 µM): 0.838 | viability (Etoposide; 0.16 µM): 1.16 | viability (Etoposide; 0.8 µM): 0.739 | viability (Etoposide; 4 µM): 0.654 | viability (Etoposide; 20 µM): 0.268 | viability (Thalidomide; 0.032 µM): 1.03 | viability (Thalidomide; 0.16 µM): 1.02 | viability (Thalidomide; 0.8 µM): 1.07 | viability (Thalidomide; 4 µM): 1.14 | viability (Thalidomide; 20 µM): 1.02 | viability (Pomalidomide; 0.0032 µM): 0.937 | viability (Pomalidomide; 0.016 µM): 1.16 | viability (Pomalidomide; 0.08 µM): 1.27 | viability (Pomalidomide; 0.4 µM): 0.858 | viability (Pomalidomide; 2 µM): 1.2 | viability (SGC 0946; 0.024 µM): 1.19 | viability (SGC 0946; 0.12 µM): 1.12 | viability (SGC 0946; 0.6 µM): 0.867 | viability (SGC 0946; 3 µM): 1.01 | viability (SGC 0946; 15 µM): 0.486 | viability ([1]; 0.008 µM): 1.04 | viability ([1]; 0.04 µM): 1.1 | viability ([1]; 0.2 µM): 1.01 | viability ([1]; 1 µM): 0.989 | viability ([1]; 5 µM): 0.908 | viability (Tofacitinib; 0.024 µM): 0.865 | viability (Tofacitinib; 0.12 µM): 0.895 | viability (Tofacitinib; 0.6 µM): 0.94 | viability (Tofacitinib; 3 µM): 0.935 | viability (Tofacitinib; 15 µM): 0.937 | viability (Chlorambucil; 0.032 µM): 1.02 | viability (Chlorambucil; 0.16 µM): 0.938 | viability (Chlorambucil; 0.8 µM): 0.932 | viability (Chlorambucil; 4 µM): 0.81 | viability (Chlorambucil; 20 µM): 0.262 | viability (Entospletinib; 0.024 µM): 1.03 | viability (Entospletinib; 0.12 µM): 1.09 | viability (Entospletinib; 0.6 µM): 0.875 | viability (Entospletinib; 3 µM): 1.04 | viability (Entospletinib; 15 µM): 1.06
